Measured values taken from US20130189764A1, “SELECTIVE GROWTH MEDIA” (Oxide Limited, priority 2000, published 2013).
Converted amounts (≈) assume the structure as drawn.

Tests used:
Haemophilus influenzae = test: MIC on DMSal agar (Example 15); assay type: cell-based; settings: 5 strains
Acinetobacter baumanii = test: MIC on DMSal agar (Example 15); assay type: cell-based; settings: 1 strain
Protocol: (§1) The experiments were conducted as follows: […], on cooling (but prior to setting) filter-sterilised alaphosphin or AEP were incorporated at final concentrations of 1 mM, 2 mM, 5 mM and 10 mM, and the medium used to pour plates. Control plates were prepared using nutrient agar without alaphosphin or AEP. A single colony of the organism under test was inoculated in 10 ml of nutrient broth and incubated (without agitation) at 37° C. for 4 hours.

[1] = system: Staphylococcus epidermidis; test: MIC on DMSal agar (Example 15); assay type: cell-based; settings: 3 strains
Protocol: as §1

Serratia marcescans = test: MIC on DMSal agar (Example 15); assay type: cell-based; settings: 1 strain
Protocol: as §1

Streptococcus agalactiae = test: MIC on DMSal agar (Example 15); assay type: cell-based; settings: 5 strains
Protocol: as §1

Streptoccocus viridans = test: MIC on DMSal agar (Example 15); assay type: cell-based; settings: 1 strain
Protocol: as §1

Staphylococcus aureus = test: MIC on DMSal agar (Example 15); assay type: cell-based; settings: 14 strains
Protocol: as §1

Hafnia alvei = test: MIC on DMSal agar (Example 15); assay type: cell-based; settings: 1 strain
Protocol: as §1

Klebsiella aerogenes = test: MIC on DMSal agar (Example 15); assay type: cell-based; settings: 1 strain
Protocol: as §1

Citrobacter freundii = test: MIC on DMSal agar (Example 15); assay type: cell-based; settings: 4 strains
Protocol: as §1

Enterococcus faecium = test: MIC on DMSal agar (Example 15); assay type: cell-based; settings: 1 strain
Protocol: as §1

[2] = system: Staphylococcus saprophyticus; test: MIC on DMSal agar (Example 15); assay type: cell-based; settings: 1 strain
Protocol: as §1

Klebsiella pneumoniae = test: MIC on DMSal agar (Example 15); assay type: cell-based; settings: 2 strains
Protocol: as §1

Listeria ivanovii = test: MIC on DMSal agar (Example 15); assay type: cell-based; settings: 1 strain
Protocol: as §1

Group D Streptococcus = test: MIC on DMSal agar (Example 15); assay type: cell-based; settings: 2 strains
Protocol: as §1

Escherichia coli = test: MIC on DMSal agar (Example 15); assay type: cell-based; settings: 7 strains
Protocol: as §1

Group A Streptococcus = test: MIC on DMSal agar (Example 15); assay type: cell-based; settings: 7 strains
Protocol: as §1

Shigella = test: MIC on DMSal agar (Example 15); assay type: cell-based; settings: 3 strains
Protocol: as §1

Cronobacter sakazakii = test: MIC on DMSal agar (Example 15); assay type: cell-based; settings: 1 strain
Protocol: as §1

Aeromonas hydrophilia = test: MIC on DMSal agar (Example 15); assay type: cell-based; settings: 1 strain
Protocol: as §1

Enterobacter cloacae = test: MIC on DMSal agar (Example 15); assay type: cell-based; settings: 2 strains
Protocol: as §1

Enterobacter aerogenes = test: MIC on DMSal agar (Example 15); assay type: cell-based; settings: 1 strain
Protocol: as §1

Campylobacter coli = test: MIC on DMSal agar (Example 15); assay type: cell-based; settings: 4 strains
Protocol: as §1

Proteus mirabilis = test: MIC on DMSal agar (Example 15); assay type: cell-based; settings: 1 strain
Protocol: as §1

Escherichia hermanii = test: MIC on DMSal agar (Example 15); assay type: cell-based; settings: 1 strain
Protocol: as §1

[3] = system: Staphylococcus haemolyticus; test: MIC on DMSal agar (Example 15); assay type: cell-based; settings: 1 strain
Protocol: as §1

Group F Streptococcus = test: MIC on DMSal agar (Example 15); assay type: cell-based; settings: 2 strains
Protocol: as §1

Proteus vulgaris = test: MIC on DMSal agar (Example 15); assay type: cell-based; settings: 1 strain
Protocol: as §1

Campylobacter jejuni = test: MIC on DMSal agar (Example 15); assay type: cell-based; settings: 4 strains
Protocol: as §1

Listeria innocua = test: MIC on DMSal agar (Example 15); assay type: cell-based; settings: 1 strain
Protocol: as §1

Salmonella = settings: 16 strains, DMSal agar
Protocol: (§2) The experiments were conducted as follows: nutrient agar medium was autoclaved and, on cooling (but prior to setting) filter-sterilised alaphosphin or AEP were incorporated at final concentrations of 1 mM, 2 mM, 5 mM and 10 mM, and the medium used to pour plates. Control plates were prepared using nutrient agar without alaphosphin or AEP. A single colony of the organism under test was inoculated in 10 ml of nutrient broth and incubated (without agitation) at 37° C. for 4 hours.

E. coli strains = test: inhibition of E. coli strains on DMSal agar for selective growth of Salmonella (Example 16); assay type: cell-based, Escherichia coli; settings: added to DMSal, selective growth of Salmonella strains
Protocol: as §2
(§3) Trp-AEP was compared to alaphosphin (Ala-AEP) for selective growth of Salmonella strains on DMSal agar.

Yersinia enterocolitica = test: MIC on DMSal agar (Example 15); assay type: cell-based; settings: 2 strains
[4] = system: Klebsiella pneumoniae 411; test: MIC / growth in DMSal (Example 16); assay type: cell-based; settings: Klebsiella pneumoniae 411, DMSal
Protocol: as §2, §3

Escherichia coli 199 = test: MIC / growth in DMSal (Example 16); assay type: cell-based; settings: Escherichia coli 199, DMSal
Protocol: as §2, §3

[5] = system: Salmonella typhimurium 722; test: MIC / growth in DMSal (Example 16); assay type: cell-based; settings: Salmonella typhimurium 722, DMSal
Protocol: as §2, §3

Salmonella arizonae 1200 = test: MIC / growth in DMSal (Example 16); assay type: cell-based; settings: Salmonella arizonae 1200, DMSal
Protocol: as §2, §3

Salmonella virchow 703 = test: MIC / growth in DMSal (Example 16); assay type: cell-based; settings: Salmonella virchow 703, DMSal
Protocol: as §2, §3

Escherichia coli 122 = test: MIC / growth in DMSal (Example 16); assay type: cell-based; settings: Escherichia coli 122, DMSal
Protocol: as §2, §3

Citrobacter freundii 370 = test: MIC / growth in DMSal (Example 16); assay type: cell-based; settings: Citrobacter freundii 370, DMSal
Protocol: as §2, §3

[6] = system: Salmonella enteriditis 723; test: MIC / growth in DMSal (Example 16); assay type: cell-based; settings: Salmonella enteriditis 723, DMSal
Protocol: as §2, §3

Serratia marcescens 217 = test: MIC / growth in DMSal (Example 16); assay type: cell-based; settings: Serratia marcescens 217, DMSal
Protocol: as §2, §3

[7] = system: Klebsiella pneumoniae 758; test: MIC / growth in DMSal (Example 16); assay type: cell-based; settings: Klebsiella pneumoniae 758, DMSal
Protocol: as §2, §3

Klebsiella aerogenes 323 = test: MIC / growth in DMSal (Example 16); assay type: cell-based; settings: Klebsiella aerogenes 323, DMSal
Protocol: as §2, §3

Escherichia coli 481 = test: MIC / growth in DMSal (Example 16); assay type: cell-based; settings: Escherichia coli 481, DMSal
Protocol: as §2, §3

Burkholderia cepacia = test: MIC on DMSal agar (Example 15); assay type: cell-based; settings: 1 strain
Streptococcus pneumonaie = test: MIC on DMSal agar (Example 15); assay type: cell-based; settings: 5 strains
[8] = system: Cronobacterr sakazakii 1888; test: MIC / growth in DMSal (Example 16); assay type: cell-based, Cronobacter sakazakii; settings: Cronobacterr sakazakii 1888, DMSal
Protocol: as §2, §3

CC(NC(=O)C(N)Cc1c[nH]c2ccccc12)P(=O)(O)O (stereo not shown) [Trp-AEP, tryptophan-AEP]
MIC (Haemophilus influenzae): >128 µg/mL | MIC (Acinetobacter baumanii): >256 µg/mL | MIC [1]: 4 to 16 µg/mL | MIC (Serratia marcescans): 2 µg/mL (≈ 6.43 µM) | MIC (Streptococcus agalactiae): 128 µg/mL (≈ 411 µM) | MIC (Streptoccocus viridans): >256 µg/mL | MIC (Staphylococcus aureus): 0.5 to 16 µg/mL | MIC (Hafnia alvei): approximately 1 μg/ml | MIC (Hafnia alvei; listed as tryptophan-AEP): 1 µg/mL (≈ 3.21 µM) | MIC (Klebsiella aerogenes): 8 µg/mL (≈ 25.7 µM) | MIC (Citrobacter freundii): approximately 1 μg/ml | MIC (Citrobacter freundii; listed as tryptophan-AEP): 1 to 4 µg/mL | MIC (Enterococcus faecium): >256 µg/mL | MIC [2]: 64 µg/mL (≈ 206 µM) | MIC (Klebsiella pneumoniae): 2 to 4 µg/mL | MIC (Listeria ivanovii): >128 µg/mL | MIC (Group D Streptococcus): 16 µg/mL (≈ 51.4 µM) | MIC (Escherichia coli): ≤ 0.5 µg/mL | MIC (Escherichia coli; listed as tryptophan-AEP): 0.25 to 0.5 µg/mL | MIC (Group A Streptococcus): >256 µg/mL | MIC (Shigella): ≤ 0.5 µg/mL | MIC (Cronobacter sakazakii): approximately 1 μg/ml | MIC (Cronobacter sakazakii; listed as tryptophan-AEP): 1 µg/mL (≈ 3.21 µM) | MIC (Aeromonas hydrophilia): 128 µg/mL (≈ 411 µM) | MIC (Enterobacter cloacae): 4 µg/mL (≈ 12.9 µM) | MIC (Enterobacter aerogenes): 1 µg/mL (≈ 3.21 µM) | MIC (Campylobacter coli): >128 µg/mL | MIC (Proteus mirabilis): >128 µg/mL | MIC (Escherichia hermanii): 0.5 µg/mL (≈ 1.61 µM) | MIC [3]: 2 µg/mL (≈ 6.43 µM) | MIC (Group F Streptococcus): >256 µg/mL | MIC (Proteus vulgaris): >128 µg/mL | MIC (Campylobacter jejuni): >128 µg/mL | MIC (Listeria innocua): 32 µg/mL (≈ 103 µM) | MIC (Salmonella): 2 to 16 µg/mL | concentration producing equivalent results to Ala-AEP at 1.5 μg/ml (E. coli strains): 0.25 µg/mL | MIC (Yersinia enterocolitica): 4 to 8 µg/mL | MIC of Trp-AEP [4]: 2 µg/mL | MIC of Trp-AEP (Escherichia coli 199): 0.25 µg/mL | MIC of Trp-AEP [5]: 3 µg/mL | MIC of Trp-AEP (Salmonella arizonae 1200): 2 µg/mL | MIC of Trp-AEP (Salmonella virchow 703): 3 µg/mL | MIC of Trp-AEP (Escherichia coli 122): 0.25 µg/mL | MIC of Trp-AEP (Citrobacter freundii 370): 2 µg/mL | MIC of Trp-AEP [6]: 3 µg/mL | MIC of Trp-AEP (Serratia marcescens 217): 3 µg/mL | MIC of Trp-AEP [7]: 0.064 µg/mL | MIC of Trp-AEP (Klebsiella aerogenes 323): 3 µg/mL | MIC of Trp-AEP (Escherichia coli 481): 0.064 µg/mL | MIC (Burkholderia cepacia): >256 µg/mL | MIC (Streptococcus pneumonaie): >256 µg/mL | MIC of Trp-AEP [8]: 0.125 µg/mL
